The values below come from PMC10004195, “Novel Dual-Target Kinase Inhibitors of EGFR and ALK Were Designed, Synthesized, and Induced Cell Apoptosis in Non-Small Cell Lung Cancer” (Molecules, 2023).

One data set relates to H2228 (EML4-ALK) cells. Kind of data set: CCK8 antiproliferative assay, H2228 cells. The data set is classed as cell-based, human. Conditions: Homo sapiens, NCI-H2228, 72 h, CCK8 assay, 72 h, H2228 (EML4-ALK); read-out: IC50 H2228. An excerpt:
The human cancer cell lines (H1975, H2228) used in this study were purchased from the Guangzhou ginny ou biotechnology Co., Ltd. (Guangzhou, China). The human cancer cell lines (NCI-H522) used in this study were purchased from the Shenzhen Haodi Huatuo Biotechnology Co., LTD (Shenzhen, China). The human cancer cell lines (LOVO, HLF, BJ, LO2) used in this study were purchased from the Laboratory Animal Service Center at Sun Yat-sen University (Guangzhou, China). […] Cell lines LOVO, HLF, BJ, and LO2 were cultivated in DMEM containing 10% (v/v) heat-inactivated fetal bovine serum (FBS), 100 units/mL penicillin, and 100 μg/mL streptomycin.
(Formazan colour is commonly taken as a measure of viable cells.)

The next data set concerns p-ERK. Kind of data set: Western blot, p-ERK. The data set is classed as cell-based, human. Conditions: WB, 5, 10 and 100 nM, 3 h treatment. On the procedure:
(§1) Four kinases (EGFR, EGFR^L858R/T790M, ALK, and EML4-ALK) were tested using an ELISA assay. […] There was no effect on the wild-type EGFR or ALK kinases triggered by the compound. Consequently, the selection of the compound was good as both compounds balanced IC50 against EGFR and ALK, respectively. […] Following that, fluorescence assays were used to measure the phosphorylation of the EGFR and ALK protein affect with compound 9j at the cellular level. […] Next, WB assay was used to test the protein expression of H1975 and H2228 cells at the concentration of 5, 10, and 100 nM.
(§2) H1975 (H2228) cells seeded in 60 mm dishes at a density of 5 × 10^5 cells/well were incubated with or without compound 9j (0, 5, 10, 100 nM) for 2–4 h. After treatment, cells were stained as previously described.
In general terms: In western blotting, separated proteins are transferred to a membrane and probed.

Data set [1] has as its system phosphorylated EGFR (p-EGFR). Kind of data set: Immunofluorescence assay of phosphorylated EGFR. It counts as cell-based, human. The settings on record: fluorescence assay, treatment for 2 to 4 h. The procedure: as §1
(§3) Figure 2 (A) The activity of compound 9j against four kinases (EGFR, ALK, EGFR ^L858R T790M, and EML4-ALK). (B) H1975 and H2228 cells were treated with 9j for 2–4 h; the staining for phosphorylated EGFR (p-EGFR) and phosphorylated ALK (p-ALK) was shown as red fluorescence. (C) WB analysis of phosphorylated proteins in drug-treated H1975 and H2228 cells.

Data set [2] has as its system nontumorigenic cell lines. The text has this: (§4) It is critical to evaluate the balance between the safety and efficacy of drugs for the development of new drugs; thus, we then conducted a cytotoxicity test on […] types of nontumorigenic cell lines from different origins, including LO2 (human normal liver cells), HK2 (human kidney proximal convoluted tubule epithelial cells), HLF (human embryonic lung fibroblast), 293A (human embryonic kidney cells), and HUVEC (human umbilical vein endothelial cells). […] In addition, we evaluated the compound’s safety in vivo by performing acute toxicity tests in mice, and 9j was injected intravenously at concentrations of 100 mg/kg, 150 mg/kg, and 300 mg/kg.
(§5) A total of 7000 cells per well were seeded in a 96-well plate with at least three technical replicates; then, exposed to different concentrations (10, 5, 1, 0.1, 0.05, 0.01 uM) of the test compounds for 72 h. After the treatment, CCK8 (Sigma, St. Louis, MO, USA) was added to each well under sterile conditions (to a final concentration of 10% of the total volume) and the plates were incubated for 2–4 h at 37 °C. Absorbance was measured at 450 nm in a microplate reader.

Data set [3] deals with H1975 cells. Kind of data set: Apoptosis assay by flow cytometry (annexin V / PI). The data set is classed as cell-based, human. Conditions: 48 h, control 6.07%. An excerpt: The death of cells occurs by apoptosis, and the uncontrolled division and multiplication of cells causes cancer. Inhibiting cellular apoptosis is primarily responsible for cancer cell survival, since cellular apoptosis is negatively correlated with cell growth. We then verified the antitumor effect of compound 9j by inducing apoptosis through flow cytometry.
To assay the number of apoptotic cells, cells were stained with allo-phycocyanin–annexin V (#550475, BD Pharmingen, Becton Drive Franklin Lakes, NJ, USA) for 15 min; then, they were washed and resuspended in 1:500 propidium iodide (#81845, Sigma-Aldrich, St. Louis, Mo, USA) viability marker, and acquired on LSRFortessa. Data were analyzed with FlowJo software. Annexin V+ cells were considered as apoptotic cells.
Background: Flow cytometry measures light scatter and fluorescence of single cells or particles in a stream.

The next data set concerns the target EML4-ALK (Homo sapiens, UniProt Q9UM73). Kind of data set: Kinase ELISA assay, EML4-ALK. It counts as biochemical. Conditions: read-out: IC50 against EML4-ALK. On the procedure: as §1
Data set [4] concerns phosphorylated ALK (p-ALK). Kind of data set: Immunofluorescence assay of phosphorylated ALK. The data set is classed as cell-based, human. The settings on record: fluorescence assay, treatment for 2 to 4 h. On the procedure:
as §1, §3

For data set [5], the system named is H1975 cells. Kind of data set: Wound-healing (cell scratching) assay. It counts as cell-based, human. Conditions: H1975, 48 h; PBS group about 70%. On the procedure:
The migration and invasion of tumor cells directly contribute to metastasis. Metastasis is the leading cause of death in cancer patients. To determine the ability of 9j to inhibit tumor cell migration, the cell scratching assay was performed. Following scratching, phase contrast pictures were taken of the scratched and healing cell monolayers.
H1975 cells were plated in a six-well culture dish at 5 × 10^4 cells/dish and grown for 24 h, and […]. The medium was then replaced with a serum-free 1640 medium and treated with compound 9j at the indicated concentrations for another 24 h or 48 h. After the samples were washed with phosphate buffer solution (PBS), the cell images were immediately detected by a Zeiss LSM 570 laser scanning confocal microscope (Carl Zeiss, Jena, Germany).

Data set [6] deals with LO2 (human normal liver cells). Kind of data set: Cytotoxicity test on nontumorigenic cells, LO2. It counts as cell-based.
Description: as §4, §5

Data set [7] has as its system HK2 (human kidney proximal convoluted tubule epithelial cells). Briefly: Cytotoxicity test on nontumorigenic cells, HK2. The data set is classed as cell-based.
Description: as §4, §5

Data set [8] has as its system HLF (human embryonic lung fibroblast). Briefly: Cytotoxicity test on nontumorigenic cells, HLF. The data set is classed as cell-based.
Description: as §4, §5

The target in a further data set is EGFR^L858R/T790M (Homo sapiens, UniProt P00533, L858R/T790M). Briefly: Kinase ELISA assay, EGFR L858R/T790M. It counts as biochemical. The settings on record: read-out: IC50 against EGFR^L858R/T790M. The procedure: as §1
Another data set addresses ALK wild-type kinase (Homo sapiens, UniProt Q9UM73). Kind of data set: Kinase ELISA assay, wild-type ALK. The data set is classed as biochemical. On the procedure: as §1
The subject of the next data set is p-ALK. Briefly: Western blot, p-ALK. Conditions: WB, 5, 10 and 100 nM, 3 h treatment. The data set is classed as cell-based, human. The procedure: as §1, §2

Chain of EML4-ALK (Q9UM73 1058-1620): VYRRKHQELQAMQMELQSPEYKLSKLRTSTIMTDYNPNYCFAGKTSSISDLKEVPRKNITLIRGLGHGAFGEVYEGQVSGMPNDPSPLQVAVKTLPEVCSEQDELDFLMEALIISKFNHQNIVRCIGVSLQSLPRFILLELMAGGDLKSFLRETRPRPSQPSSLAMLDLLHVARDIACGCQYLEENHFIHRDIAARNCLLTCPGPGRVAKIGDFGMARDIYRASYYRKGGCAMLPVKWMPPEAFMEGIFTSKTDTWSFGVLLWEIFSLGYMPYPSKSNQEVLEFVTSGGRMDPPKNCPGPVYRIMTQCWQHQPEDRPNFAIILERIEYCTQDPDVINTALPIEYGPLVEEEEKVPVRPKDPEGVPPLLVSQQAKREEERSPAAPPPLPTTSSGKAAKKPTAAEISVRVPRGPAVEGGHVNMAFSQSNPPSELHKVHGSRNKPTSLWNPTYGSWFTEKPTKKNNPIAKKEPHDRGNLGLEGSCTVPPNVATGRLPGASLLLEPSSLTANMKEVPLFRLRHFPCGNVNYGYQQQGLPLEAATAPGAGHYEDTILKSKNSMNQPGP
Chain of EML4-ALK (Q9HC35 1-496, further chain): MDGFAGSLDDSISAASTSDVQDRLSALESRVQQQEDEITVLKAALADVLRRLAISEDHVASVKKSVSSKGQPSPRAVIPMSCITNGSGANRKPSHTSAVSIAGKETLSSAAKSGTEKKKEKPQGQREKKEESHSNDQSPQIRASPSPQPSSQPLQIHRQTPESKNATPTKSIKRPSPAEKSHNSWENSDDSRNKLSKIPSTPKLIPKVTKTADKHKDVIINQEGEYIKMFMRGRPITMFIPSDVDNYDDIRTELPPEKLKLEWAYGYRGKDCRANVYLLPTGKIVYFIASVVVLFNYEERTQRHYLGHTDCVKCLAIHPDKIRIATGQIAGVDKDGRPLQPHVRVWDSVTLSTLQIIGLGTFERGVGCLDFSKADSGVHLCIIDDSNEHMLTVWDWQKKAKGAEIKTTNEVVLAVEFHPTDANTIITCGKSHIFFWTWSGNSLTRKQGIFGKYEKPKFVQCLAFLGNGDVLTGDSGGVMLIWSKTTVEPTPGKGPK
Chain of ALK wild-type kinase (Q9UM73 19-1620): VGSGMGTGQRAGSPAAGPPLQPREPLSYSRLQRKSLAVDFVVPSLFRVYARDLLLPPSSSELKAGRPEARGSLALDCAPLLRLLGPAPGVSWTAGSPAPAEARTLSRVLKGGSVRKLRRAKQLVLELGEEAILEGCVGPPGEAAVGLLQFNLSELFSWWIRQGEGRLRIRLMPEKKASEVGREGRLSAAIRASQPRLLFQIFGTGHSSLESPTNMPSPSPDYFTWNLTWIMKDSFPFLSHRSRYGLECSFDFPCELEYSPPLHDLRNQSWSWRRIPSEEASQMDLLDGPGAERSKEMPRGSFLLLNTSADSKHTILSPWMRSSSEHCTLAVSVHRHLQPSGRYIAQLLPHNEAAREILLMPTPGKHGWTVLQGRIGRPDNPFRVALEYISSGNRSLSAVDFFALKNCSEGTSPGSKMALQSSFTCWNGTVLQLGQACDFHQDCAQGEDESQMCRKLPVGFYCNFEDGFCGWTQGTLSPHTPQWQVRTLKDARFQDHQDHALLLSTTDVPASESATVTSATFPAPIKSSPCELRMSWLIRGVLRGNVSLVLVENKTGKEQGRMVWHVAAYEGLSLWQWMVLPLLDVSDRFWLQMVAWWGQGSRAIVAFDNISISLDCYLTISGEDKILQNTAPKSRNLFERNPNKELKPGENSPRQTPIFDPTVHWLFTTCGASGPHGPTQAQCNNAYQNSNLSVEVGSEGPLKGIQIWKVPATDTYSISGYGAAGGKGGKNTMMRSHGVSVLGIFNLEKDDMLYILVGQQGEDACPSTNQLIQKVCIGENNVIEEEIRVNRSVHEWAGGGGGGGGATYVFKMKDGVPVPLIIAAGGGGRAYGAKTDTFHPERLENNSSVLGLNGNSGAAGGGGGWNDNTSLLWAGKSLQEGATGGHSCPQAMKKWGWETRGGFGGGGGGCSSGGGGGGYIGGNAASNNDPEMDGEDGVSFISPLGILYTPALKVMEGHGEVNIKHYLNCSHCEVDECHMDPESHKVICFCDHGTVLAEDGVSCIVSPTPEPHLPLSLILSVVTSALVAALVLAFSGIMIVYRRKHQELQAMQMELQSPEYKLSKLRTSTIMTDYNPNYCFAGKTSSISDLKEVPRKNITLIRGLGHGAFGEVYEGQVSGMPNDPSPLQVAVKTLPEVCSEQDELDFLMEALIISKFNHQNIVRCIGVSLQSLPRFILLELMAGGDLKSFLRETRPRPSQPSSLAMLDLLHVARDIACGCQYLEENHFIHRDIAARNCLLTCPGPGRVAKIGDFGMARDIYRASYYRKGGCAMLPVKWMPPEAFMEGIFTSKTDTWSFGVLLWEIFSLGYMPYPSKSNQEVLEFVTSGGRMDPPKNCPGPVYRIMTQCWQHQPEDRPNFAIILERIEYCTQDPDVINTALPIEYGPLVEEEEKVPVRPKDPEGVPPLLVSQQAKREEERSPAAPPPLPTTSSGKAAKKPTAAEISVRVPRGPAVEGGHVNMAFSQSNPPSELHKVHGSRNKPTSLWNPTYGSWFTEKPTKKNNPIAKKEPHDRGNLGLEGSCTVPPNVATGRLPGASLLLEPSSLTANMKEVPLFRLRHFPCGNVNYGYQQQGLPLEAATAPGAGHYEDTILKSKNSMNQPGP
Chain of EGFR^L858R/T790M (P00533 25-1210 T790M/L858R): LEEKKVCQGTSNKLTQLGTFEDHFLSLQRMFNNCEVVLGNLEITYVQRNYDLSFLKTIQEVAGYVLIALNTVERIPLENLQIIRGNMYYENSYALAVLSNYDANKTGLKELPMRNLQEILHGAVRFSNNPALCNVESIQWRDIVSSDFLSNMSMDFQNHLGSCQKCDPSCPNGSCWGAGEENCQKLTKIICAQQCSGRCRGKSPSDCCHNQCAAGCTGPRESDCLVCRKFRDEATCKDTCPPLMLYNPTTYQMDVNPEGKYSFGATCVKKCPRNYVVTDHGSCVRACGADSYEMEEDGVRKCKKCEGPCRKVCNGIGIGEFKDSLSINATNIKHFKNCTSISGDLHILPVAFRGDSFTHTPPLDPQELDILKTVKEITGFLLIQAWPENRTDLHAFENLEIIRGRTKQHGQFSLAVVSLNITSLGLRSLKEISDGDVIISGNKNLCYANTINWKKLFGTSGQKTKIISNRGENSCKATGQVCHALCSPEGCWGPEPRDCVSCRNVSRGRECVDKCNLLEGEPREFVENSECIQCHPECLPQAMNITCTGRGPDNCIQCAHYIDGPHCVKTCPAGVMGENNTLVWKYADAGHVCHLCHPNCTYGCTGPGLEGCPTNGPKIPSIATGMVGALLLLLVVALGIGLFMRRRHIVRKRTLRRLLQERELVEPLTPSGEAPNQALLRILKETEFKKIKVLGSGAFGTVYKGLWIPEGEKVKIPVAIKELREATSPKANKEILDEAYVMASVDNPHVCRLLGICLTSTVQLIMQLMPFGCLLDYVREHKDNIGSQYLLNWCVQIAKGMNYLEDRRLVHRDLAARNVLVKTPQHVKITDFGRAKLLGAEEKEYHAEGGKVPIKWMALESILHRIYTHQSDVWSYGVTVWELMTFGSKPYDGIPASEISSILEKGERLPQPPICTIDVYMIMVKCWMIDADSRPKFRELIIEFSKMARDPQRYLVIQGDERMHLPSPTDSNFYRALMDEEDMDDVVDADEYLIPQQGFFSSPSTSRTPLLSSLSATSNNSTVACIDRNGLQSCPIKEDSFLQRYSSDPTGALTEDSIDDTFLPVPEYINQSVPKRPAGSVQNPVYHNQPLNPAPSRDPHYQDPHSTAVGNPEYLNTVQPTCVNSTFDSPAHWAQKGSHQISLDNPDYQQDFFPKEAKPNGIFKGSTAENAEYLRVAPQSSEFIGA

Take `C=CC(=O)Nc1cc(Nc2ncc(Cl)c(Nc3ccc(Cl)cc3[S+]([O-])C(C)C)n2)c(OC)cc1C1CCN(C)CC1` (stereo not shown) [9j, N-(5-((5-Chloro-4-((4-chloro-2-(isopropylsulfinyl)phenyl)amino)pyrimidin-2-yl)amino)-4-methoxy-2-(1-methylpiperidin-4-yl)phenyl)acrylamide]: the IC50 in the data set with H2228 (EML4-ALK) cells came out at 0.0818 ± 0.02 µM; on EML4-ALK, 0.0563 ± 0.0003 µM; in data set [6] (Homo sapiens, LO2, mean ± SE, read-out: Toxicity to normal cells, IC50 LO2), 23.96 ± 0.03 µM; in [7] (Homo sapiens, Epithelial cell, HK2, mean ± SE, read-out: Toxicity to normal cells, IC50 HK2) it was 25.71 ± 0.08 µM; in data set [8] (Homo sapiens, Fibroblast, HLF, mean ± SE, read-out: Toxicity to normal cells, IC50 HLF), 27.87 ± 0.01 µM; at EGFR^L858R/T790M, 0.0357 ± 0.0009 µM. This compound registered an IC50 against ALK wild-type kinase of 0.13 ± 0.015 µM. Moreover, the “expression of p-ERK” value in the data set with p-ERK is “inhibited”. The “expression level of phosphorylated EGFR protein” value in [1] is “decreased significantly”. In data set [2], the “toxicity toward the nontumorigenic cell lines” value is recorded as “very little apparent toxicity”. The apoptotic rate with H1975 cells [3] (10 nM) is recorded as 12.7%; in the data set on H1975 cells [3] (50 nM) it was 26.8%; in the data set on H1975 cells [3] (100 nM) it was 47.67%. Moreover, the “expression level of phosphorylated ALK protein” value in data set [4] is “decreased significantly”. Besides, in the data set with H1975 cells [5], the scratch healing rate entry is “clearly decreased”. Besides, the “Selectivity Ratio (IC50 human normal cells)/(IC50 H1975), LO2” value in [6] (LO2 vs H1975) came out at 306.1. The “Selectivity Ratio (IC50 human normal cells)/(IC50 H1975), HK2” value in data set [7] (HK2 vs H1975) is listed as 329.6. For the same compound, the “Selectivity Ratio (IC50 human normal cells)/(IC50 H1975), HLF” value in data set [8] (HLF vs H1975) came to 357.3. Moreover, the “expression of p-ALK” value in the data set on p-ALK is “inhibited”.
